Data as given in patent US20240018133A1, “MODULATORS OF THE INTEGRATED STRESS PATHWAY” (Calico Life Sciences LLC, priority 2019, published 2024).

Tested on: ATF4 luciferase reporter (human full-length ATF4 5'-UTR fused to firefly luciferase) in HEK293T cells
Test: ATF4-Luc assay (in vitro model of VWMD): HEK293T cells carrying ATF4 luciferase reporter, tunicamycin-treated
Type: cell-based
Details: Homo sapiens, HEK-293T, 1 μg/mL tunicamycin, 7 hours, One Glo luminescence
Procedure, shortened: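 Reporter cells were stably generated by retroviral transduction and puromycin selection, then seeded at 30,000 cells/well. Next day, cells received 1 μg/mL tunicamycin with 200 nM test compound for 7 h, and luciferase luminescence was read with a one-step reagent. Values reported as EC50.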

SMILES	EC50
O=C(COc1ccc(Cl)c(Cl)c1)NC12CC(NC(=O)[C@@H]3C[C@H](O)c4cc(F)c(F)cc4O3)(C1)C2 [Compound 208, (2S,4S)—N-{3-[2-(3,4-dichlorophenoxy)acetamido]bicyclo[1.1.1]pentan-1-yl}-6,7-difluoro-4-hydroxy-3,4-dihydro-2H-1-benzopyran-2-carboxamide]	< 10 nM
O=C(COc1ccc(Cl)c(F)c1)NC12CC(NC(=O)C3CC(NC4(C(=O)O)CC4)c4cc(Cl)ccc4O3)(C1)C2 (stereo not drawn) [Compound 210, 1-{[6-chloro-2-({3-[2-(4-chloro-3-fluorophenoxy)acetamido]bicyclo[1.1.1]pentan-1-yl}carbamoyl)-3,4-dihydro-2H-1-benzopyran-4-yl]amino}cyclopropane-1-carboxylic acid]	250 to 500 nM
COC(=O)CN1C[C@@H](C(=O)NC23CC(NC(=O)COc4ccc(Cl)c(F)c4)(C2)C3)Oc2ccc(Cl)cc21 [Compound 211, methyl [(2S)-6-chloro-2-({3-[2-(4-chloro-3-fluorophenoxy)acetamido]bicyclo[1.1.1]pentan-1-yl}carbamoyl)-2,3-dihydro-4H-1,4-benzoxazin-4-yl]acetate]	10 to 50 nM
O=C(NC12CC(NC(=O)C3CC(O)c4cc(Cl)ccc4O3)(C1)C2)c1cnc(C(F)F)cn1 (stereo not drawn) [Compound 213, N-{3-[(6-chloro-4-hydroxy-3,4-dihydro-2H-1-benzopyran-2-carbonyl)amino]bicyclo[1.1.1]pentan-1-yl}-5-(difluoromethyl)pyrazine-2-carboxamide]	10 to 50 nM
O=C(NC12CCC(NC(=O)C3CC(=O)c4cc(Cl)ccc4O3)(CC1)[C@@H](O)C2)c1cc(C(F)F)no1 (stereo partly drawn) [Compound 214, N-{(3S)-4-[(6-chloro-4-oxo-3,4-dihydro-2H-1-benzopyran-2-carbonyl)amino]-3-hydroxybicyclo[2.2.2]octan-1-yl}-3-(difluoromethyl)-1,2-oxazole-5-carboxamide]	250 to 500 nM
O=C(NC12CC(NC(=O)C3CC(=O)c4cc(Cl)ccc4O3)(C1)C2)c1cnc(C(F)F)cn1 (stereo not drawn) [Compound 217, N-{3-[(6-chloro-4-oxo-3,4-dihydro-2H-1-benzopyran-2-carbonyl)amino]bicyclo[1.1.1]pentan-1-yl}-5-(difluoromethyl)pyrazine-2-carboxamide]	50 to 250 nM
CS(=O)(=O)NC1CC(C(=O)NC23CC(NC(=O)COc4ccc(Cl)c(F)c4)(C2)C3)Oc2ccc(Cl)cc21 (stereo not drawn) [Compound 219, 6-chloro-N-{3-[2-(4-chloro-3-fluorophenoxy)acetamido]bicyclo[1.1.1]pentan-1-yl}-4-[(methanesulfonyl)amino]-3,4-dihydro-2H-1-benzopyran-2-carboxamide]	< 10 nM
CC(=O)NC1CC(C(=O)NC23CC(NC(=O)COc4ccc(Cl)c(F)c4)(C2)C3)Oc2ccc(Cl)cc21 (stereo not drawn) [Compound 220, 4-acetamido-6-chloro-N-{3-[2-(4-chloro-3-fluorophenoxy)acetamido]bicyclo[1.1.1]pentan-1-yl}-3,4-dihydro-2H-1-benzopyran-2-carboxamide]	10 to 50 nM
COc1cc2oc(C(=O)NC34CC(NC(=O)COc5ccc(Cl)c(F)c5)(C3)C4)cc(=O)c2cc1OC [Compound 221, N-{3-[2-(4-chloro-3-fluorophenoxy)acetamido]bicyclo[1.1.1]pentan-1-yl}-6,7-dimethoxy-4-oxo-4H-1-benzopyran-2-carboxamide]	> 2000 nM
O=C(COc1ccc(Cl)c(F)c1)NC12CC(NC(=O)C3CC(O)c4ccc(F)cc4O3)(C1)C2 (stereo not drawn) [Compound 222, N-{3-[2-(4-chloro-3-fluorophenoxy)acetamido]bicyclo[1.1.1]pentan-1-yl}-7-fluoro-4-hydroxy-3,4-dihydro-2H-1-benzopyran-2-carboxamide]	< 10 nM
O=C(COc1ccc(Cl)c(F)c1)NC12CC(NC(=O)[C@H]3CC(=O)c4cc(Cl)ccc4O3)(C1)C2 [Compound 223, (2R)-6-chloro-N-{3-[2-(4-chloro-3-fluorophenoxy)acetamido]bicyclo[1.1.1]pentan-1-yl}-4-oxo-3,4-dihydro-2H-1-benzopyran-2-carboxamide]	< 10 nM
O=C(COc1ccc(Cl)c(F)c1)NC12CC(NC(=O)[C@@H]3CC(=O)c4cc(Cl)ccc4O3)(C1)C2 [Compound 224, (2S)-6-chloro-N-{3-[2-(4-chloro-3-fluorophenoxy)acetamido]bicyclo[1.1.1]pentan-1-yl}-4-oxo-3,4-dihydro-2H-1-benzopyran-2-carboxamide]	< 10 nM
O=C(COc1ccc(C(F)(F)F)nc1)NC12CC(NC(=O)[C@H]3CC(=O)c4cc(Cl)ccc4O3)(C1)C2 [Compound 225, (2R)-6-chloro-4-oxo-N-[3-(2-{[6-(trifluoromethyl)pyridin-3-yl]oxy}acetamido)bicyclo[1.1.1]pentan-1-yl]-3,4-dihydro-2H-1-benzopyran-2-carboxamide]	10 to 50 nM
O=C(COc1ccc(C(F)(F)F)nc1)NC12CC(NC(=O)[C@H]3C[C@@H](O)c4cc(Cl)ccc4O3)(C1)C2 [Compound 226, (2R,4R)-6-chloro-4-hydroxy-N-[3-(2-{[6-(trifluoromethyl)pyridin-3-yl]oxy}acetamido)bicyclo[1.1.1]pentan-1-yl]-3,4-dihydro-2H-1-benzopyran-2-carboxamide]	< 10 nM
COc1ncc(OCC(=O)NC23CC(NC(=O)[C@H]4C[C@@H](O)c5cc(Cl)ccc5O4)(C2)C3)cn1 [Compound 227, (2R,4R)-6-chloro-4-hydroxy-N-(3-{2-[(2-methoxypyrimidin-5-yl)oxy]acetamido}bicyclo[1.1.1]pentan-1-yl)-3,4-dihydro-2H-1-benzopyran-2-carboxamide]	50 to 250 nM
O=C(COc1cnc(C(F)(F)F)nc1)NC12CC(NC(=O)[C@H]3C[C@@H](O)c4cc(Cl)ccc4O3)(C1)C2 [Compound 228, (2R,4R)-6-chloro-4-hydroxy-N-[3-(2-{[2-(trifluoromethyl)pyrimidin-5-yl]oxy}acetamido)bicyclo[1.1.1]pentan-1-yl]-3,4-dihydro-2H-1-benzopyran-2-carboxamide]	10 to 50 nM
O=C(COc1ccc(Cl)c(F)c1)NC12CCC(NC(=O)[C@H]3C[C@@H](O)c4cc(Cl)ccc4O3)(CC1)CC2 [Compound 229, (2R,4R)-6-chloro-N-{4-[2-(4-chloro-3-fluorophenoxy)acetamido]bicyclo[2.2.2]octan-1-yl}-4-hydroxy-3,4-dihydro-2H-1-benzopyran-2-carboxamide]	< 10 nM
O=C(COc1ccc(Cl)c(F)c1)NC12CC(NC(=O)c3cc(=O)c4ccc(C(F)(F)F)cc4o3)(C1)C2 [Compound 230, N-{3-[2-(4-chloro-3-fluorophenoxy)acetamido]bicyclo[1.1.1]pentan-1-yl}-4-oxo-7-(trifluoromethyl)-4H-1-benzopyran-2-carboxamide]	< 10 nM
O=C(COc1ccc(Cl)c(F)c1)NC12CC(NC(=O)c3cc(=O)c4cc(Cl)c(F)cc4o3)(C1)C2 [Compound 231, 6-chloro-N-{3-[2-(4-chloro-3-fluorophenoxy)acetamido]bicyclo[1.1.1]pentan-1-yl}-7-fluoro-4-oxo-4H-1-benzopyran-2-carboxamide]	< 10 nM
O=C(COc1ccc(Cl)c(F)c1)NC12CC(NC(=O)c3cc(=O)c4cc(F)c(Cl)cc4o3)(C1)C2 [Compound 232, 7-chloro-N-{3-[2-(4-chloro-3-fluorophenoxy)acetamido]bicyclo[1.1.1]pentan-1-yl}-6-fluoro-4-oxo-4H-1-benzopyran-2-carboxamide]	< 10 nM
O=C(COc1ccc(Cl)cn1)NC12CC(NC(=O)[C@H]3C[C@@H](O)c4cc(Cl)ccc4O3)(C1)C2 [Compound 233, (2R,4R)-6-chloro-N-(3-{2-[(5-chloropyridin-2-yl)oxy]acetamido}bicyclo[1.1.1]pentan-1-yl)-4-hydroxy-3,4-dihydro-2H-1-benzopyran-2-carboxamide]	10 to 50 nM
O=C(COc1ccc(Cl)c(F)c1)NC12CC(NC(=O)c3cc(=O)c4ccc(Cl)cc4o3)(C1)C2 [Compound 235, 7-chloro-N-{3-[2-(4-chloro-3-fluorophenoxy)acetamido]bicyclo[1.1.1]pentan-1-yl}-4-oxo-4H-1-benzopyran-2-carboxamide]	10 to 50 nM
Cc1cc2oc(C(=O)NC34CC(NC(=O)COc5ccc(Cl)c(F)c5)(C3)C4)cc(=O)c2cc1Cl [Compound 236, 6-chloro-N-{3-[2-(4-chloro-3-fluorophenoxy)acetamido]bicyclo[1.1.1]pentan-1-yl}-7-methyl-4-oxo-4H-1-benzopyran-2-carboxamide]	< 10 nM
CC1(C(=O)NC23CC(NC(=O)COc4ccc(Cl)c(F)c4)(C2)C3)CCc2cc(Cl)ccc2O1 (stereo not drawn) [Compound 240, 6-chloro-N-{3-[2-(4-chloro-3-fluorophenoxy)acetamido]bicyclo[1.1.1]pentan-1-yl}-2-methyl-3,4-dihydro-2H-1-benzopyran-2-carboxamide]	10 to 50 nM
Cc1cc2c(cc1F)[C@@H](O)C[C@@H](C(=O)NC13CC(NC(=O)COc4ccc(Cl)c(F)c4)(C1)C3)O2 [Compound 242, (2S,4S)—N-{3-[2-(4-chloro-3-fluorophenoxy)acetamido]bicyclo[1.1.1]pentan-1-yl}-6-fluoro-4-hydroxy-7-methyl-3,4-dihydro-2H-1-benzopyran-2-carboxamide]	< 10 nM
O=C(COc1ccc(Cl)c(F)c1)NC12CC(NC(=O)C3CC(O)c4ccc(C(F)(F)F)cc4O3)(C1)C2 (stereo not drawn) [Compound 243, N-{3-[2-(4-chloro-3-fluorophenoxy)acetamido]bicyclo[1.1.1]pentan-1-yl}-4-hydroxy-7-(trifluoromethyl)-3,4-dihydro-2H-1-benzopyran-2-carboxamide]	< 10 nM
CS(=O)(=O)N[C@H]1C[C@H](C(=O)NC23CC(NC(=O)COc4ccc(Cl)c(F)c4)(C2)C3)Oc2ccc(Cl)cc21 [Compound 244, (2R,4S)-6-chloro-N-{3-[2-(4-chloro-3-fluorophenoxy)acetamido]bicyclo[1.1.1]pentan-1-yl}-4-[(methanesulfonyl)amino]-3,4-dihydro-2H-1-benzopyran-2-carboxamide]	10 to 50 nM
